Reference: patent publication US9139593B2, “Azetidine compounds, compositions and methods of use” (Hoffman-La Roche Inc., priority 2011, dated 2015)
pIC50: −log10 of the molar value.

Target: Human Soluble Epoxide Hydrolase (Homo sapiens (Human), UniProt P34913)
Experiment: Human Soluble Epoxide Hydrolase Enzyme Assay
Type: biochemical
Conditions: resorufin epoxide substrate, fluorescence, room temperature, triplicates
Protocol: Human Soluble Epoxide Hydrolase Enzyme Assay
Test compounds (1.6 mM stock in DMSO) were diluted 3 fold in series in DMSO and 0.8 microliters per well were added into 384-well NBS microplates (Corning). Resorufin epoxide substrate (20 uM stock in DMSO) was diluted to 5 μM with Assay Buffer (25 mM bis-Tris-HCl, pH 7.0, 1 mM DTT and 0.2 mg/ml BSA) and 8 microliters per well were added to the microplates. Thirty two microliters per well of 3.6 nM soluble epoxide hydrolase in Assay Buffer was then added. The samples were incubated at room temperature and assay signals were monitored by reading excitation at 530 nm and emission fluorescence at 590 nm on a PlateVision (Zeiss) reader every 2 minutes for 8 times. The reaction rate, % inhibition and IC50 values were calculated using AssayAnalyzer and Condoseo software (Genedata AG, Basel, Switzerland).
All the experiments were done in triplicates.
The compounds of the present invention were tested for their capacity to inhibit sEH activity.

Sequence of Human Soluble Epoxide Hydrolase (P34913 whole entry): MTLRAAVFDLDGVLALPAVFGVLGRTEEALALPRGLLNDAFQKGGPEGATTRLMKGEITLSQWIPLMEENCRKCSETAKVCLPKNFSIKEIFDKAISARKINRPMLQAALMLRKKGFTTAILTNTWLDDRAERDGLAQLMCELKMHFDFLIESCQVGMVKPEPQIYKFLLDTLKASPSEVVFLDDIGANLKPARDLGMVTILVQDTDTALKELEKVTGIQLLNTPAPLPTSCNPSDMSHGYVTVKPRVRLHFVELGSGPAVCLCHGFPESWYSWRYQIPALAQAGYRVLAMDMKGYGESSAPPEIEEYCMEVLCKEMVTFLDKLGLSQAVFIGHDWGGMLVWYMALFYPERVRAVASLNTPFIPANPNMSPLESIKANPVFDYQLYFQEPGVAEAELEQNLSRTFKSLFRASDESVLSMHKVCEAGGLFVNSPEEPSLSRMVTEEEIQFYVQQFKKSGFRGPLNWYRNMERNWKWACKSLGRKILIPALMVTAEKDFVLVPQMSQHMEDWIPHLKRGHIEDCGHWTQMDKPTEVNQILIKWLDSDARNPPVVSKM

pIC50 | Structure (SMILES)
5.90 | O=C(O)c1ccc(N2CC3(CN(C(=O)NCc4ccc(Cl)cc4Cl)C3)C2)cc1 [Example 2, 4-[6-(2,4-Dichloro-benzylcarbamoyl)-2,6-diaza-spiro[3.3]hept-2-yl]-benzoic acid]
5.59 | O=C(NC12CC3CC(CC(C3)C1)C2)N1CC2(CCN2S(=O)(=O)c2ccc(Cl)cc2)C1 [Example 10, 1-(4-Chloro-benzenesulfonyl)-1,6-diaza-spiro[3.3]heptane-6-carboxylic acid adamantan-1-ylamide]
6.44 | O=C(NCc1ccc(Cl)cc1Cl)N1CC2CN(c3ncccn3)C2C1 (racemic) [Example 20, rac-6-Pyrimidin-2-yl-3,6-diaza-bicyclo[3.2.0]heptane-3-carboxylic acid 2,4-dichloro-benzylamide]
6.45 | O=C(O)c1ccc(N2CC3CN(C(=O)NCc4ccc(Cl)cc4Cl)CC32)cc1 (racemic) [Example 21, rac-4-[3-(2,4-Dichloro-benzylcarbamoyl)-3,6-diaza-bicyclo[3.2.0]hept-6-yl]-benzoic acid]
5.63 | O=C(NCc1ccc(Cl)cc1Cl)N1CC2(C1)CN(c1ncccn1)C2 [Example 4, 6-Pyrimidin-2-yl-2,6-diaza-spiro[3.3]heptane-2-carboxylic acid 2,4-dichloro-benzylamide]
5.55 | O=C(NCCCc1ccccc1)[C@@H]1CCC12CN(S(=O)(=O)c1ccccc1Cl)C2 [Example 14, (R)-2-(2-Chlorophenylsulfonyl)-N-(3-phenylpropyl)-2-azaspiro[3.3]heptane-5-carboxamide]
6.19 | O=C(NCc1ccc(Cl)cc1Cl)N1CC2(CCN2S(=O)(=O)c2ccc(Cl)cc2)C1 [Example 11, 1-(4-Chloro-benzenesulfonyl)-1,6-diaza-spiro[3.3]heptane-6-carboxylic acid 2,4-dichloro-benzylamide]
6.54 | O=C(NCCCc1ccccc1)[C@H]1CCC12CN(S(=O)(=O)c1ccccc1Cl)C2 [Example 15, (S)-2-(2-Chlorophenylsulfonyl)-N-(3-phenylpropyl)-2-azaspiro[3.3]heptane-5-carboxamide]
5.57 | O=C(NCc1ccc(Cl)cc1Cl)N[C@@H]1CCC12CN(S(=O)(=O)c1ccc(Cl)cc1)C2 [Example 16, (R)-1-(2-(4-Chlorophenylsulfonyl)-2-azaspiro[3.3]heptan-5-yl)-3-(2,4-dichlorobenzyl)urea]
6.61 | O=C(NCc1ccccc1OC(F)(F)F)N1CC2(CCN2S(=O)(=O)c2ccc(Cl)cc2)C1 [Example 12, 1-(4-Chloro-benzenesulfonyl)-1,6-diaza-spiro[3.3]heptane-6-carboxylic acid 2-trifluoromethoxy-benzylamide]
6.17 | O=C(NCc1ccc(Cl)cc1Cl)N[C@H]1CCC12CN(S(=O)(=O)c1ccc(Cl)cc1)C2 [Example 17, (S)-1-(2-(4-Chlorophenylsulfonyl)-2-azaspiro[3.3]heptan-5-yl)-3-(2,4-dichlorobenzyl)urea]
5.70 | O=C(NCCCc1ccccc1)N1CC2(CCN2S(=O)(=O)c2ccc(Cl)cc2)C1 [Example 9, 1-(4-Chloro-benzenesulfonyl)-1,6-diaza-spiro[3.3]heptane-6-carboxylic acid (3-phenyl-propyl)-amide]
6.62 | O=C(NCc1ccc(Cl)cc1Cl)N1CC2(C1)CN(C(=O)c1ccccc1)C2 [Example 1, 6-Benzoyl-2,6-diaza-spiro[3.3]heptane-2-carboxylic acid 2,4-dichloro-benzylamide]
6.32 | O=C(NCCCc1ccccc1)N1CC2(CCN2S(=O)(=O)c2ccccc2C(F)(F)F)C1 [Example 13, 1-(2-trifluoromethyl-benzenesulfonyl)-1,6-diaza-spiro[3.3]heptane-6-carboxylic acid (3-phenyl-propyl)-amide]
6.90 | O=C(NCc1ccc(Cl)cc1Cl)N1CC2(CCN2c2ncccn2)C1 [Example 7, N-(2,4-Dichlorobenzyl)-1-(pyrimidin-2-yl)-1,6-diazaspiro[3.3]heptane-6-carboxamide]
6.49 | O=C(NCc1ccc(Cl)cc1Cl)N1CCC12CN(S(=O)(=O)c1ccc(Cl)cc1)C2 [Example 6, 6-(4-Chlorophenylsulfonyl)-N-(2,4-dichlorobenzyl)-1,6-diazaspiro[3.3]heptane-1-carboxamide]
6.55 | O=C(NCc1ccc(Cl)cc1Cl)N1CC2(CCN2S(=O)(=O)c2ccc(F)cc2)C1 [Example 5, N-(2,4-Dichlorobenzyl)-1-(4-fluorophenylsulfonyl)-1,6-diazaspiro[3.3]heptane-6-carboxamide]
5.70 | O=C(NCCCc1ccccc1)N1CC2(CCN2Cc2ccccc2)C1 [Example 8, Benzyl-1,6-diaza-spiro[3.3]heptane-6-carboxylic acid (3-phenyl-propyl)-amide]

Structure (SMILES) | pIC50
O=C(NCc1ccc(Cl)cc1Cl)N1CC2CN(S(=O)(=O)c3ccccc3)C2C1 (racemic) [Example 19, rac-6-Benzenesulfonyl-3,6-diaza-bicyclo[3.2.0]heptane-3-carboxylic acid 2,4-dichloro-benzylamide] | 6.62
O=C(NCc1ccc(Cl)cc1Cl)N1CC2CN(C(=O)c3ccccc3)C2C1 (racemic) [Example 18, rac-6-Benzoyl-3,6-diaza-bicyclo[3.2.0]heptane-3-carboxylic acid 2,4-dichloro-benzylamide] | 6.74
